Assay type in all cases: functional
For assay [1], the system named is Streptococcus pneumoniae. The experiment in a line: Antimicrobial activity against erythromycin-resistant Streptococcus pneumoniae PU13 encoded by erm and mef gene.
The subject of assay [2] is Streptococcus pneumoniae. In words: Antimicrobial activity against erythromycin-resistant Streptococcus pneumoniae PU11 encoded by erm and mef gene.
Assay [3] relates to Staphylococcus aureus. In words: Antimicrobial activity against erythromycin-susceptible Staphylococcus aureus PU19 encoded by erm(A) gene.
Assay [4] deals with Streptococcus pneumoniae. The experiment in a line: Antimicrobial activity against erythromycin-susceptible Streptococcus pneumoniae ATCC 49619.
The test system of assay [5] is Staphylococcus aureus. In words: Antimicrobial activity against erythromycin-susceptible Staphylococcus aureus ATCC 29213.
In assay [6] the test system is Staphylococcus aureus. The experiment in a line: Antimicrobial activity against erythromycin-susceptible Staphylococcus aureus PU32 encoded by erm(A) gene.

Drawing on ChEMBL document CHEMBL1157905, “Synthesis and antibacterial activities of a novel alkylide: 3-O-(3-aryl-2-propargyl) and 3-O-(3-aryl-2-propenyl)clarithromycin derivatives” (2010), this text covers MIC for four compounds.

Values after ≈ are worked out from the molar mass of the structure shown. A value given as a limit tells only on which side of the number the result lay.

For the compound `CC[C@H]1OC(=O)[C@H](C)[C@@H](O/C=C\Cc2cncc3ccccc23)[C@H](C)[C@@H](O[C@@H]2O[C@H](C)C[C@H](N(C)C)[C@H]2O)[C@](C)(OC)C[C@@H](C)/C(=N\OCc2ccccc2Cl)[C@H](C)[C@H]2OC(=O)O[C@@]21C`, the MIC turned out to be 32 µg/mL (≈ 34.7 µM) against Streptococcus pneumoniae [1]; 32 µg/mL (≈ 34.7 µM) in the assay with Streptococcus pneumoniae [2]; 64 µg/mL (≈ 69.4 µM) against Staphylococcus aureus [3]; 0.25 µg/mL (≈ 0.271 µM) against Streptococcus pneumoniae [4]; 8 µg/mL (≈ 8.67 µM) in the assay with Staphylococcus aureus [5]; 32 µg/mL (≈ 34.7 µM) against Staphylococcus aureus [6].
As for `CC[C@H]1OC(=O)[C@H](C)[C@@H](OC/C=C/c2cncc3ccccc23)[C@H](C)[C@@H](O[C@@H]2O[C@H](C)C[C@H](N(C)C)[C@H]2O)[C@](C)(OC)C[C@@H](C)/C(=N\OCc2ccccc2Cl)[C@H](C)[C@H]2OC(=O)O[C@@]21C`, the minimal inhibitory concentration (MIC) in the assay with Streptococcus pneumoniae [1] amounted to 32 µg/mL (≈ 34.7 µM); against Streptococcus pneumoniae [2], 32 µg/mL (≈ 34.7 µM); against Staphylococcus aureus [3] it was 64 µg/mL (≈ 69.4 µM); against Streptococcus pneumoniae [4], 4 µg/mL (≈ 4.34 µM); against Staphylococcus aureus [5], 64 µg/mL (≈ 69.4 µM); in the assay with Staphylococcus aureus [6] it was 64 µg/mL (≈ 69.4 µM).
On to `CC[C@H]1OC(=O)[C@H](C)[C@@H](O[C@H]2C[C@@](C)(OC)[C@@H](O)[C@H](C)O2)[C@H](C)[C@@H](O[C@@H]2O[C@H](C)C[C@H](N(C)C)[C@H]2O)[C@](C)(O)C[C@@H](C)CN(C)[C@H](C)[C@@H](O)[C@]1(C)O` [AZITHROMYCIN], for which the MIC is 128 µg/mL (≈ 171 µM) against Streptococcus pneumoniae [1]; 128 µg/mL (≈ 171 µM) against Streptococcus pneumoniae [2]; more than 256 µg/mL against Staphylococcus aureus [3]; 0.064 µg/mL (≈ 0.0854 µM) with Streptococcus pneumoniae [4]; 0.5 µg/mL (≈ 0.668 µM) against Staphylococcus aureus [5]; 64 µg/mL (≈ 85.4 µM) against Staphylococcus aureus [6].
In the case of `CC[C@H]1OC(=O)[C@H](C)[C@@H](O[C@H]2C[C@@](C)(OC)[C@@H](O)[C@H](C)O2)[C@H](C)[C@@H](O[C@@H]2O[C@H](C)C[C@H](N(C)C)[C@H]2O)[C@](C)(OC)C[C@@H](C)C(=O)[C@H](C)[C@@H](O)[C@]1(C)O` [CLARITHROMYCIN], the MIC against Streptococcus pneumoniae [1] is 128 µg/mL (≈ 171 µM); with Streptococcus pneumoniae [2], 128 µg/mL (≈ 171 µM); against Staphylococcus aureus [3], more than 256 µg/mL; against Streptococcus pneumoniae [4], 0.032 µg/mL (≈ 0.0428 µM); against Staphylococcus aureus [5], 0.5 µg/mL (≈ 0.668 µM); with Staphylococcus aureus [6], 128 µg/mL (≈ 171 µM).
